What was measured:
TNBS induced colitis = experiment: Trinitrobenzenesulfonic acid (TNBS) Induced Colitis, mice; format: in vivo, Balb/c female mice; conditions: mouse
Description: In Vivo Model: Trinitrobenzenesulfonic acid (TNBS) Induced Colitis
The TNBS model of experimental colitis (Bobin-Dubigeon, C., Collin, X., Grimaud, N., Robert, J-M., Guillaume Le Baut, G., and Petit, J-Y. Effects of tumour necrosis factor-a synthesis inhibitors on rat trinitrobenzene sulphonic acid-induced chronic colitis. Eur. J. Pharmacology, 431: 103-110, 2001), is characterized by shrinkage of the colon, intraperitoneal serosal adhesions, severe wounding and inflammatory damage, diarrhea, a continuous pattern of mucosal epithelial damage in the distal colon with infiltration of inflammatory cells. These symptomatic signs in the above—mentioned models are similar to what occur in human colitis.
Male Wistar rats (200-250 g) are inoculated with 500 microliters of a solution of 10 to 20 mg of TNBS in 30% ethanol delivered intracolonically via catheter or ball-tipped gavage needle to the 8th cm from the anus. When Balb/c female mice (8-12 weeks of age) were used, the inoculation volume was 50 microliters containing 2-3 mg of TNBS in 30% ethanol delivered intracolonically via catheter or ball-tipped gavage needle to the 4th cm from the anus. During the ensuing 7 days, test animals were administered a preparation of an experimental compound. This material may be administered orally, subcutaenously or intraperitoneally, once or twice daily. […] Among the parameters analyzed were the length of the colon starting from the anus to the top of the cecum, the weight of the colon, the consistency of any stools found within the colon, the presence or absence of intraperitoneal adhesions on the serosal surfacr of the intestin, and the gross macroscopic appearance of the colon. The latter is scored for length and severity of inlfammatory damage using a 10 point score. […]
Histological analyses of tissues consisted of staining paraffin-embedded tissue sections with hematoxylin-eosin dye. Epithelial damage scores were determined as the fraction of the tissue section showing damaged epithelium. Scores were determined as follows: 0=no damage; 1=<⅓ damaged, 2=⅓ to <⅔ damaged, 3=>⅔ damaged. […]

DSS induced colitis = experiment: Dextran Sulfate Sodium (DSS) Induced Colitis; format: in vivo, Balb/c female mice and C57Black/6 mice
Description: In Vivo Model for Colitis: Dextran Sulfate Sodium (DSS) Induced Colitis Inflammatory bowel diseases such as ulcerative colitis and Crohn's disease are characterized by diminished intestinal barrier function, apparent inflammatory damage that may include erosive loss of intestinal mucosa, and inflammatory infiltrates in the mucosa and submucosa. […] Among the many possible chemicals used are dextran sulfate sodium (DSS) and trinitrobenzene sulfonic acid (TNBS). The dextran sulfate sodium model of experimental colitis is characterized by a shrinkage of the colon's length, macrosopic inflammatory damage, diarrhea, a discontinuous pattern of mucosal epithelial damage in the distal colon with infiltration of inflammatory cells that include macrophages and neutrophils into the mucosa and submucosa (Blumberg, R. S., Saubermann, L. J., and Strober, W. Animal models of mucosal inflammation and their relation to human inflammatory bowel disease. Current Opinion in Immunology, 11: 648-656, 1999; […]., and Nakaya, R. A novel method of induction of reliable experimental acute and chronic colitis in mice. […] Cooper, […]., and […]. Clinicopathologic study of dextran sulfate sodium experimental murine colitis. Lab Invest., 69: 238-249, 1993; […]., Bajaj-Elliott, M., MacDonald, […]., and Buchler, M. W. Characterization of acute murine dextran sodium sulphate colitis: Cytokine profile and dose dependency. Digestion, 62: 240-248, 2000; […]., Husband, A. J., and Doe, W. F. The inflammatory infiltrate in the acute stage of the dextran sulphate sodium induced colitis: B cell response differs depending on the percentage of DSS used to induce it. BMC Clinical Pathology, 1: 3-13, 2001; and Diaz-Granados, Howe, K., Lu, J, and […]. Dextran sulfate sodium-induced colonic histopathology, but not altered epithelial ion transport, is reduced by inhibition of phosphodiesterase activity. Amer. J. Pathology, 156: 2169-2177, 2000). Balb/c female mice and […]/6 mice were used in these studies. […] When […]/6 mice were used, a solution of tap water containing 4% DSS was used. During the ensuing 7-day period, test animals were administered a preparation of an experimental compound. This material may be administered orally or intraperitoneally or subcutaneously, once or twice daily. At the end of this period, the animals were euthanized and their colons were collected for further analysis. Among the parameters analyzed were the length of the colon starting from the anus to the top of the cecum, the consistency of any stools found within the colon, and the gross macroscopic appearance of the colon. The distal colon between the 1st and the 4th centimeter was removed and placed in 10% neutral buffered formalin for later histological analysis. For the following parameters, colon length, stool consistency and appearance, and macroscopic damage a scoring system is used to describe the changes. […] Thus, […] Histological analyses of tissues consisted of staining paraffin-embedded tissue sections with hematoxylin-eosin dye. Epithelial damage scores were determined as the fraction of the tissue section showing damaged epithelium. […] Statistical analysis performed in Graphpad Prism 4.0 using ANOVA with Dunnet's or Bonferroni's multiple comparison's test.

[1] = 10 mg/kg sc bid, C57 Black/6 mice
[2] = 30 mg/kg sc bid, C57 Black/6 mice

Q: Which results are given for `COc1cnn(C)c(=O)c1-c1ccc(C[C@H](NC(=O)c2c(Cl)cccc2Cl)C(=O)O)cc1` [Cpd 17]?
A: % Inhibition of Total Macroscopic Score (TNBS induced colitis; 10 mg/kg sc bid): 21.30%; % Inhibition of Total Macroscopic Score (TNBS induced colitis; 30 mg/kg sc bid): 25.5%; % Inhibition of Total Macroscopic Score (TNBS induced colitis; 60 mg/kg sc bid): −17%; % Inhibition of Epithelial Damage Score (DSS induced colitis; 3 mg/kg sc bid, balb/c mice): 61.11%; % Inhibition of Total Macroscopic Score (DSS induced colitis; 3 mg/kg sc bid, balb/c mice): 32.95%; % Inhibition of Epithelial Damage Score (DSS induced colitis; [1]): 33.3%; % Inhibition of Total Macroscopic Score (DSS induced colitis; [1]): −7.2%; % Inhibition of Epithelial Damage Score (DSS induced colitis; 10 mg/kg sc bid, balb/c mice): 56.3%; % Inhibition of Total Macroscopic Score (DSS induced colitis; 10 mg/kg sc bid, balb/c mice): 30.6%; % Inhibition of Epithelial Damage Score (DSS induced colitis; [2]): 50%; % Inhibition of Total Macroscopic Score (DSS induced colitis; [2]): 11.2%; % Inhibition of Epithelial Damage Score (DSS induced colitis; 30 mg/kg sc bid, balb/c mice): 78.1%; % Inhibition of Total Macroscopic Score (DSS induced colitis; 30 mg/kg sc bid, balb/c mice): −32.8%
